pIC50: −log10 of the molar value.
Experiments:
[1] = tested on: Epidermal growth factor receptor (Homo sapiens), P00533 [L858R,T790M,C797S]; details: dose 300.0 nM
NCI-H1975 = experiment: Antiproliferative activity against human H1975 cells assessed as cell viability after 72 hrs by MTT assay; format: functional, cell-based; details: NCI-H1975, 72 h
A549 = experiment: Antiproliferative activity against human A549 cells assessed as cell viability after 72 hrs by MTT assay; format: functional, cell-based; details: A549, 72 h
[2] = biological target: Epidermal growth factor receptor (Homo sapiens, UniProt P00533); experiment: Inhibition of wild type EGFR (unknown origin) by mobility shift assay
[3] = biological target: Epidermal growth factor receptor (Homo sapiens, UniProt P00533, L858R/T790M); experiment: Inhibition of EGFR L858R/T790M mutant (unknown origin) by mobility shift assay
[4] = biological target: Hepatocyte growth factor receptor (Homo sapiens, UniProt P08581); experiment: Inhibition of c-Met (unknown origin) by mobility shift assay
[5] = biological target: Epidermal growth factor receptor (Homo sapiens, UniProt P00533, C797S/L858R/T790M); experiment: Inhibition of EGFR L858R/T790M/C797S mutant (unknown origin) by mobility shift assay
Chain of Epidermal growth factor receptor (Homo sapiens, UniProt P00533, C797S/L858R/T790M) (P00533 25-1210 T790M/C797S/L858R limits assumed): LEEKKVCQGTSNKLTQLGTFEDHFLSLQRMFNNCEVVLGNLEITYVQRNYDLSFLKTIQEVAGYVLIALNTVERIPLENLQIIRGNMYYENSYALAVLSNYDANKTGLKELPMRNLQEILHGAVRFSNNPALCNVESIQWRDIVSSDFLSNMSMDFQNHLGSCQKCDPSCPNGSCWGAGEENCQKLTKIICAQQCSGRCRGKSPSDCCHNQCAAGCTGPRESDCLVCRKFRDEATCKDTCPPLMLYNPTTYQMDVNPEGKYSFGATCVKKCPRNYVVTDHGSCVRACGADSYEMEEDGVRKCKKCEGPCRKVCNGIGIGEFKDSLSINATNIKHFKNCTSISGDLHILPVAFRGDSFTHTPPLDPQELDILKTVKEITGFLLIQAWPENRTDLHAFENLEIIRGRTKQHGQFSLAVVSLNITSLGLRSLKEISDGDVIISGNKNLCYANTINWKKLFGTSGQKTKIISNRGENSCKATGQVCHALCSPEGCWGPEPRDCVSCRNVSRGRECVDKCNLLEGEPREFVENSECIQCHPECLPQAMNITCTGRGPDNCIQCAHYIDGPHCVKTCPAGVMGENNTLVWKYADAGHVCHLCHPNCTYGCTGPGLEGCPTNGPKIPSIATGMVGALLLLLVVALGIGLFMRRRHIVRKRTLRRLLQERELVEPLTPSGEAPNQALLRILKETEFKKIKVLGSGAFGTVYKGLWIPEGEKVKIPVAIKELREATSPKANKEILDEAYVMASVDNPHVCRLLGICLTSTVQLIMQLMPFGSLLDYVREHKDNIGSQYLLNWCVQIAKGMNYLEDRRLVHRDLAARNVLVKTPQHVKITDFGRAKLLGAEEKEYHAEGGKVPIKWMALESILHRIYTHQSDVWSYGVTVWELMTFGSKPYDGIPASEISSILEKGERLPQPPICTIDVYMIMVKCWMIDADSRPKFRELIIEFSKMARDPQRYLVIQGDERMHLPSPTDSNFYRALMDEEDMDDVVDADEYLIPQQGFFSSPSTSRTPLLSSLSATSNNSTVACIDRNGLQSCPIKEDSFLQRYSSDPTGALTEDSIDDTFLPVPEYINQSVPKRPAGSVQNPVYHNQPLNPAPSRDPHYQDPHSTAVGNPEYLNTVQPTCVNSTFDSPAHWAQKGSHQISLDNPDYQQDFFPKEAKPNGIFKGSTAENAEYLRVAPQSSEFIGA

Chain of Epidermal growth factor receptor (Homo sapiens, UniProt P00533) (P00533 whole entry): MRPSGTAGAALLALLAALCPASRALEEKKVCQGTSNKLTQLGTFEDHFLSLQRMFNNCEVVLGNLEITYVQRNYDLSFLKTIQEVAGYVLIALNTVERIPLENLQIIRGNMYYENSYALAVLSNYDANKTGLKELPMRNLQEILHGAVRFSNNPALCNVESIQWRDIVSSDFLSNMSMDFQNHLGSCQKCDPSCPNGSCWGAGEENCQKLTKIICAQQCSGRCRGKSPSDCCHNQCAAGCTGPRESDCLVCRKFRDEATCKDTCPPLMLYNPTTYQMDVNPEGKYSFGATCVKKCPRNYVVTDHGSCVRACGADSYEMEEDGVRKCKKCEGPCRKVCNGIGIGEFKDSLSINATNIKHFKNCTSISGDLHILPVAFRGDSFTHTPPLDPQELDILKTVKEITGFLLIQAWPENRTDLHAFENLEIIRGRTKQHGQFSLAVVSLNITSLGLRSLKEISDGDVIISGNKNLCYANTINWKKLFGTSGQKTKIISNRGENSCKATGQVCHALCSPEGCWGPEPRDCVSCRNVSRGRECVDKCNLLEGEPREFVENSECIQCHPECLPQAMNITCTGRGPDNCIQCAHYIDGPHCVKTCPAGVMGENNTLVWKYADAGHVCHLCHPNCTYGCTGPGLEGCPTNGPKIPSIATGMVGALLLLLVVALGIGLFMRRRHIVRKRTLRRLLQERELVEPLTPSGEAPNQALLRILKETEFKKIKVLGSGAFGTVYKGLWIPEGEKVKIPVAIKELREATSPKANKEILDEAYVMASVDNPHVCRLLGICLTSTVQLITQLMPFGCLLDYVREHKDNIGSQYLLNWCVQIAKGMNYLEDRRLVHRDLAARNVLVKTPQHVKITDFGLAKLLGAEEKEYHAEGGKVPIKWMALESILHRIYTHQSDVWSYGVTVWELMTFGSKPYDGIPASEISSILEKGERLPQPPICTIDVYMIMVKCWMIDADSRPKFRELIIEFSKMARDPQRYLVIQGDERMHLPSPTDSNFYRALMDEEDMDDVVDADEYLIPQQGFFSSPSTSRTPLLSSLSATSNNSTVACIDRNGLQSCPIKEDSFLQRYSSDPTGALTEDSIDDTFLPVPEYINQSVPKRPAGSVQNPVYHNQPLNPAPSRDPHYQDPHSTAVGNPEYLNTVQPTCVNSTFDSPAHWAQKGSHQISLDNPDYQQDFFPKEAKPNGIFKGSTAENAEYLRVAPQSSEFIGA
Chain of Epidermal growth factor receptor (Homo sapiens), P00533 [L858R,T790M,C797S] (P00533 whole entry T790M/C797S/L858R): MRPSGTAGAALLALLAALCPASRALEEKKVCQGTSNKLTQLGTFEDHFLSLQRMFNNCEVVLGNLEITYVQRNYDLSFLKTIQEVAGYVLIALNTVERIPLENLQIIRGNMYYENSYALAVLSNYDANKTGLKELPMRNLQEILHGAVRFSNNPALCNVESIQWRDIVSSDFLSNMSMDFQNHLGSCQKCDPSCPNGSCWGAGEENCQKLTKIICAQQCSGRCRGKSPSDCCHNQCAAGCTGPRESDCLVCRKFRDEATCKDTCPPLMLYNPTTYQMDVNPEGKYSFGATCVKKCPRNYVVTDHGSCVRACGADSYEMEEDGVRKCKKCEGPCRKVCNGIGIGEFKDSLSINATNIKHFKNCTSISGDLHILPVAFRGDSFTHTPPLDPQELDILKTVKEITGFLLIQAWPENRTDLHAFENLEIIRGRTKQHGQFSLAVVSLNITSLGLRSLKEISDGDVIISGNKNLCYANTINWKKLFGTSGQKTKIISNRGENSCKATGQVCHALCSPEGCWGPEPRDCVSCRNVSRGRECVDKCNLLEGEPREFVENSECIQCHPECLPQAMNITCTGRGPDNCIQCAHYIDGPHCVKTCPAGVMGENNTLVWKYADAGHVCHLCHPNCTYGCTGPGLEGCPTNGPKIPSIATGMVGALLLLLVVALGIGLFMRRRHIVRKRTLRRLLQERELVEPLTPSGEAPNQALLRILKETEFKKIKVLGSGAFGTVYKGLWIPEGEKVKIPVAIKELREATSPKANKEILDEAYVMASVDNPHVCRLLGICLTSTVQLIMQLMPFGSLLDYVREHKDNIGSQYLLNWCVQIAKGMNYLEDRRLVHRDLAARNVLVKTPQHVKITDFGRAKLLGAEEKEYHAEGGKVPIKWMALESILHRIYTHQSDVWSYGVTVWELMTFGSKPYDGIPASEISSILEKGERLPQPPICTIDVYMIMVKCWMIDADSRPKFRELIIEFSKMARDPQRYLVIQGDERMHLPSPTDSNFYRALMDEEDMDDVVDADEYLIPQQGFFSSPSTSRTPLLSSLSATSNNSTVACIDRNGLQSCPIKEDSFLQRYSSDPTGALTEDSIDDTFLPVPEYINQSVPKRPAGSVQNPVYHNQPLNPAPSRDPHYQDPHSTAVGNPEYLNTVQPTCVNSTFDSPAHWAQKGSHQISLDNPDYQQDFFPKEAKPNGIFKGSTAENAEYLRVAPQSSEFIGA
Chain of Epidermal growth factor receptor (Homo sapiens, UniProt P00533, L858R/T790M) (P00533 25-1210 T790M/L858R limits assumed): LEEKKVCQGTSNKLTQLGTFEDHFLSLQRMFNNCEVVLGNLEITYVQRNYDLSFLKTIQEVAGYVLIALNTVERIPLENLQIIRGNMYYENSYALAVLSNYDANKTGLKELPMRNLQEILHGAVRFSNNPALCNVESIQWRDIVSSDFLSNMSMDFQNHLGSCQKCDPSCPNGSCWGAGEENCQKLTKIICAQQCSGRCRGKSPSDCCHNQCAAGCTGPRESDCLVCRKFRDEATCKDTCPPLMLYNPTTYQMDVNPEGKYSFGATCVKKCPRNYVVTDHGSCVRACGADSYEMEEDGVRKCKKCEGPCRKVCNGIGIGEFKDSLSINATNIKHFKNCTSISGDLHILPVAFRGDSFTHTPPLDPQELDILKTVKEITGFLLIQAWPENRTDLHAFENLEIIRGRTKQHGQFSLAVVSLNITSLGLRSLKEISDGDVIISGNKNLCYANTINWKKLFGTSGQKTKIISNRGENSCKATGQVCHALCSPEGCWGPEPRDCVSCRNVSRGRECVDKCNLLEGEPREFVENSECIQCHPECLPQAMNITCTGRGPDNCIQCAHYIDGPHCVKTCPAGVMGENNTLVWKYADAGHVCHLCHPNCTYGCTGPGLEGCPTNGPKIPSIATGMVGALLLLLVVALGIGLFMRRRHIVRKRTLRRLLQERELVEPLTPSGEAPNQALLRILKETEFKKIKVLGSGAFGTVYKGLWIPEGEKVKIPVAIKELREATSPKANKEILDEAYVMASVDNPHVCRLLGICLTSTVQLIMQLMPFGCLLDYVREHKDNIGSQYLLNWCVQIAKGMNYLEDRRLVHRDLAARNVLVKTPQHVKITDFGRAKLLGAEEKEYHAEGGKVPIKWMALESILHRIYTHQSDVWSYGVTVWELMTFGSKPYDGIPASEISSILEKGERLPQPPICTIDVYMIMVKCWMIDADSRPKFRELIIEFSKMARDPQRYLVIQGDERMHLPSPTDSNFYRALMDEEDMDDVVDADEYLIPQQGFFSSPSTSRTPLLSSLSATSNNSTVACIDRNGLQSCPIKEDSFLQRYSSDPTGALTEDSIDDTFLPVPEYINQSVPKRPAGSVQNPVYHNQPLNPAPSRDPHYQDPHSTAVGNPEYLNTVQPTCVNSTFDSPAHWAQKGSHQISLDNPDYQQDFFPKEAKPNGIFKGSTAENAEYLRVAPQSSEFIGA

SMILES | inhibition [1] [%] | pIC50 (NCI-H1975) | pIC50 (A549) | pIC50 [2] | pIC50 [3] | pIC50 [4] | pIC50 [5]
COc1cc(N(C)C)c(NC(=O)c2ccncn2)cc1Nc1nccc(-c2cn(C)c3ccccc23)n1 | 8.8 | 5.90 | 5.29 |  |  |  | 
COc1cc(N(C)CCN(C)C)c(NC(=O)c2cnccn2)cc1Nc1nc(-c2cn(C)c3ccccc23)c2ccccc2n1 | -9.4 | 4.79 | 4.99 |  |  |  | 
COc1cc(N(C)C)c(NC(=O)c2ccnc(Cl)c2)cc1Nc1nccc(-c2cn(C)c3ccccc23)n1 | 9.4 | 5.04 | 5.46 |  |  |  | 
COc1cc(N(C)CCN(C)C)c(NC(=O)c2nccn2C)cc1Nc1nc(-c2cn(C)c3ccccc23)c2cccnc2n1 | 19.4 | 5.38 | 5.25 | < 6.30 | 6.38 | < 6.00 | < 6.30
COc1cc(N(C)C)c(NC(=O)c2nccn2C)cc1Nc1nccc(-c2cn(C)c3ccccc23)n1 | 12.1 | 5.54 | 4.99 |  |  |  | 
COc1cc(N(C)CCN(C)C)c(NC(=O)c2nccn2C)cc1Nc1nccc(-c2cn(C)c3ccccc23)n1 |  | 5.48 | 5.59 |  |  | < 6.00 | 
COc1cc(F)c(NC(=O)c2ccnc(O)c2)cc1Nc1nccc(-c2cn(C)c3ccccc23)n1 | 10.6 | 5.23 | 4.93 |  |  |  | 
COc1cc(F)c(NC(=O)c2cnccn2)cc1Nc1nccc(-c2cn(C)c3ccccc23)n1 | 9.7 | 4.61 | 5.60 |  |  |  | 
COc1cc(F)c(NC(=O)c2ccncc2)cc1Nc1nccc(-c2cn(C)c3ccccc23)n1 | 15.5 | 5.36 | 5.38 |  |  |  | 
COc1cc(N(C)CCN(C)C)c(NC(=O)c2ccnc(Cl)c2)cc1Nc1nccc(-c2cn(C)c3ccccc23)n1 | 42.9 | 5.69 | 6.01 | < 6.30 | < 6.30 | < 6.00 | 6.38
COc1cc(N(C)CCN(C)C)c(NC(=O)c2ccnc(Cl)c2)cc1Nc1nccc(-c2cn(CCCO)c3ccccc23)n1 | 70.1 | 5.74 | 5.67 | 6.13 | 7.38 | < 6.00 | 6.86
COc1cc(F)c(NC(=O)c2ccncc2OC)cc1Nc1nccc(-c2cn(C)c3ccccc23)n1 | 2.2 | 5.39 | 5.46 |  |  |  | 
COc1cc(N(C)C)c(NC(=O)c2ccnc(Cl)n2)cc1Nc1nccc(-c2cn(C)c3ccccc23)n1 | -1.8 | 5.44 | 5.55 |  |  |  | 
COc1cc(N(C)C)c(NC(=O)c2ncccn2)cc1Nc1nccc(-c2cn(C)c3ccccc23)n1 | 7.4 | 5.27 | 5.06 |  |  |  | 
COc1cc(N(C)CCN(C)C)c(NC(=O)c2ccncn2)cc1Nc1nccc(-c2cn(CCCO)c3ccccc23)n1 | 65.6 | 5.67 | 5.58 | 6.23 | 7.39 | < 6.00 | 6.79
COc1cc(N(C)C)c(NC(=O)c2ccncc2)cc1Nc1nccc(-c2cn(C)c3ccccc23)n1 | 18.1 | 5.83 | 5.05 |  |  |  | 
COc1cc(F)c(NC(=O)c2ncccn2)cc1Nc1nccc(-c2cn(C)c3ccccc23)n1 | 9.6 | 4.87 | 5.08 |  |  |  | 
COc1ccc(C(=O)Nc2cc(Nc3nccc(-c4cn(C)c5ccccc45)n3)c(OC)cc2N(C)C)nc1 | 1.2 | 5.67 | 5.29 |  |  |  | 

SMILES | inhibition [1] [%] | pIC50 (NCI-H1975) | pIC50 (A549) | pIC50 [2] | pIC50 [3] | pIC50 [4] | pIC50 [5]
COc1ccc(C(=O)Nc2cc(Nc3nccc(-c4cn(C)c5ccccc45)n3)c(OC)cc2F)nc1 | 1.5 | 4.77 | 5.09 |  |  |  | 
COc1cc(N(C)CCN(C)C)c(NC(=O)c2ccnc(O)c2)cc1Nc1nccc(-c2cn(C)c3ccccc23)n1 | 38.1 | 4.92 | 4.95 | < 6.30 | < 6.30 | < 6.00 | < 6.30
COc1cc(N(C)CCN(C)C)c(NC(=O)c2ncccn2)cc1Nc1nccc(-c2cn(C)c3ccccc23)n1 | 38.2 | 6.19 | 5.60 | 6.84 | 7.52 | < 6.00 | < 6.30
COc1cc(N(C)C)c(NC(=O)c2ccccn2)cc1Nc1nccc(-c2cn(C)c3ccccc23)n1 | 10.5 | 4.99 | 5.08 |  |  |  | 
COc1ccc(C(=O)Nc2cc(Nc3nc(-c4cn(C)c5ccccc45)c4cccnc4n3)c(OC)cc2N(C)CCN(C)C)nc1 | 12.8 | 5.94 | 5.37 |  |  |  | 
COc1cc(N(C)CCN(C)C)c(NC(=O)c2ccncc2OC)cc1Nc1nccc(-c2cn(CCCO)c3ccccc23)n1 | 49.5 | 5.71 | 5.62 |  |  |  | 
COc1cc(N(C)CCN(C)C)c(NC(=O)c2ccncc2OC)cc1Nc1nccc(-c2cn(C)c3ccccc23)n1 | 28.5 | 6.00 | 5.57 | < 6.30 | 7.00 | < 6.00 | < 6.30
COc1ccc(C(=O)Nc2cc(Nc3nccc(-c4cn(C)c5ccccc45)n3)c(OC)cc2N(C)CCN(C)C)nc1 |  | 5.37 | 5.28 |  |  | < 6.00 | 
COc1cc(F)c(NC(=O)c2nccn2C)cc1Nc1nccc(-c2cn(C)c3ccccc23)n1 | 7.7 | 4.98 | 5.29 |  |  |  | 
COc1cc(N(C)C)c(NC(=O)c2c[nH]cn2)cc1Nc1nccc(-c2cn(C)c3ccccc23)n1 | 24.7 | 5.51 | 5.45 |  |  |  | 
C=CC(=O)Nc1cc(Nc2nccc(-c3cn(C)c4ccccc34)n2)c(OC)cc1N(C)CCN(C)C [OSIMERTINIB] |  | […] | 5.73 |  |  | < 6.00 | 
COc1cc(N(C)CCN(C)C)c(NC(=O)c2cccnc2)cc1Nc1nccc(-c2cn(C)c3ccccc23)n1 | 41.6 | 5.76 | 5.80 | < 6.30 | 6.44 | < 6.00 | < 6.30
COc1cc(N(C)CCN(C)C)c(NC(=O)c2cnccn2)cc1Nc1nccc(-c2cn(C)c3ccccc23)n1 | 38.2 | 5.91 | 5.36 | 6.65 | 7.77 | < 6.00 | < 6.30
COc1cc(N(C)CCN(C)C)c(NC(=O)c2ccncn2)cc1Nc1nc(-c2cn(C)c3ccccc23)c2cccnc2n1 | 22.3 | 5.96 | 5.34 | 6.44 | < 6.30 | < 6.00 | < 6.30
COc1cc(N(C)C)c(NC(=O)c2ccncc2OC)cc1Nc1nccc(-c2cn(C)c3ccccc23)n1 | 7.9 | 4.92 | 5.52 |  |  |  | 
COc1cc(F)c(NC(=O)c2ccnc(Cl)c2)cc1Nc1nccc(-c2cn(C)c3ccccc23)n1 | 9.6 | 5.36 | 5.16 |  |  |  | 
COc1cc(N(C)CCN(C)C)c(NC(=O)c2ccncc2)cc1Nc1nccc(-c2cn(C)c3ccccc23)n1 | 24 | 5.16 | 4.98 | < 6.30 | 6.41 | < 6.00 | < 6.30
COc1cc(F)c(NC(=O)c2ccccn2)cc1Nc1nccc(-c2cn(C)c3ccccc23)n1 | -1.4 | 4.78 | 5.10 |  |  |  | 

Source: ChEMBL document CHEMBL5137051 (Eur J Med Chem, 2022)
